Results published in PubChem BioAssay (NCI).
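Grown in 96-well plates, cells were treated for 48 hours with each compound at five concentrations. Insufficient inhibition: endpoint recorded as highest concentration tested. Abbreviation: GI50, concentration required for 50% inhibition of growth. Definition used: TGI = concentration required for complete inhibition of growth.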

What was measured:
Experiment in all cases: NCI anticancer screen, dose series, 48 h; in the data active = GI50 below about 0.43 µM; inactive = the rest
786-0 renal = tested on: 786-0 renal
A498 renal = tested on: A498 renal
A549 NSCLC = tested on: A549 NSCLC
ACHN renal = tested on: ACHN renal
CAKI-1 renal = tested on: CAKI-1 renal
CCRF-CEM leukemia = tested on: CCRF-CEM leukemia
COLO 205 colon = tested on: COLO 205 colon
DU-145 prostate = tested on: DU-145 prostate
EKVX NSCLC = tested on: EKVX NSCLC
HCC-2998 colon = tested on: HCC-2998 colon
HCT-116 colon = tested on: HCT-116 colon
HCT-15 colon = tested on: HCT-15 colon
HL-60(TB) leukemia = tested on: HL-60(TB) leukemia
HOP-62 NSCLC = tested on: HOP-62 NSCLC
HS 578T breast = tested on: HS 578T breast
HT29 colon = tested on: HT29 colon
IGROV1 ovarian = tested on: IGROV1 ovarian
K-562 leukemia = tested on: K-562 leukemia
KM12 colon = tested on: KM12 colon
LOX IMVI melanoma = tested on: LOX IMVI melanoma
MALME-3M melanoma = tested on: MALME-3M melanoma
MCF7 breast = tested on: MCF7 breast
MDA-MB-435 = tested on: MDA-MB-435
MOLT-4 leukemia = tested on: MOLT-4 leukemia
NCI-H226 lung = tested on: NCI-H226 lung
NCI-H23 lung = tested on: NCI-H23 lung
NCI-H460 lung = tested on: NCI-H460 lung
NCI-H522 lung = tested on: NCI-H522 lung
NCI/ADR-RES ovarian = tested on: NCI/ADR-RES ovarian
OVCAR-3 ovarian = tested on: OVCAR-3 ovarian
OVCAR-4 ovarian = tested on: OVCAR-4 ovarian
OVCAR-8 ovarian = tested on: OVCAR-8 ovarian
PC-3 prostate = tested on: PC-3 prostate
RPMI-8226 leukemia = tested on: RPMI-8226 leukemia
RXF 393 renal = tested on: RXF 393 renal
SF-268 CNS = tested on: SF-268 CNS
SF-295 CNS = tested on: SF-295 CNS
SF-539 CNS = tested on: SF-539 CNS
SK-MEL-2 melanoma = tested on: SK-MEL-2 melanoma
SK-MEL-28 melanoma = tested on: SK-MEL-28 melanoma
SK-MEL-5 melanoma = tested on: SK-MEL-5 melanoma
SK-OV-3 ovarian = tested on: SK-OV-3 ovarian
SN12C renal = tested on: SN12C renal
SNB-19 CNS = tested on: SNB-19 CNS
SNB-75 CNS = tested on: SNB-75 CNS
SR leukemia = tested on: SR leukemia
SW-620 colon = tested on: SW-620 colon
T-47D breast = tested on: T-47D breast
TK-10 renal = tested on: TK-10 renal
U251 CNS = tested on: U251 CNS
UACC-257 melanoma = tested on: UACC-257 melanoma
UACC-62 melanoma = tested on: UACC-62 melanoma
UO-31 renal = tested on: UO-31 renal
HOP-92 NSCLC = tested on: HOP-92 NSCLC
M14 melanoma = tested on: M14 melanoma
MDA-MB-231 breast = tested on: MDA-MB-231 breast
OVCAR-5 ovarian = tested on: OVCAR-5 ovarian

NCCN1CCCCCc2ccccc21
> 10 µM: TGI (786-0 renal) | TGI (A498 renal) | TGI (A549 NSCLC) | TGI (ACHN renal) | TGI (CAKI-1 renal) | TGI (CCRF-CEM leukemia) | TGI (COLO 205 colon) | TGI (DU-145 prostate) | TGI (EKVX NSCLC) | TGI (HCC-2998 colon) | TGI (HCT-116 colon) | TGI (HCT-15 colon) | TGI (HL-60(TB) leukemia) | TGI (HOP-62 NSCLC) | TGI (HS 578T breast) | TGI (HT29 colon) | TGI (IGROV1 ovarian) | TGI (K-562 leukemia) | TGI (KM12 colon) | TGI (LOX IMVI melanoma) | TGI (MALME-3M melanoma) | TGI (MCF7 breast) | TGI (MDA-MB-435) | TGI (MOLT-4 leukemia) | TGI (NCI-H226 lung) | TGI (NCI-H23 lung) | TGI (NCI-H460 lung) | TGI (NCI-H522 lung) | TGI (NCI/ADR-RES ovarian) | TGI (OVCAR-3 ovarian) | TGI (OVCAR-4 ovarian) | TGI (OVCAR-8 ovarian) | TGI (PC-3 prostate) | TGI (RPMI-8226 leukemia) | TGI (RXF 393 renal) | TGI (SF-268 CNS) | TGI (SF-295 CNS) | TGI (SF-539 CNS) | TGI (SK-MEL-2 melanoma) | TGI (SK-MEL-28 melanoma) | TGI (SK-MEL-5 melanoma) | TGI (SK-OV-3 ovarian) | TGI (SN12C renal) | TGI (SNB-19 CNS) | TGI (SNB-75 CNS) | TGI (SR leukemia) | TGI (SW-620 colon) | TGI (T-47D breast) | TGI (TK-10 renal) | TGI (U251 CNS) | TGI (UACC-257 melanoma) | TGI (UACC-62 melanoma) | TGI (UO-31 renal)

CCN(CC)Cc1cc(Nc2nc(NC3CCC(N(C)C)CC3)c3ccccc3n2)ccc1OC (stereo unspecified)
24.5 µM: TGI (SN12C renal)
14.6 µM: TGI (MCF7 breast)
13.3 µM: TGI (SF-539 CNS) | TGI (SW-620 colon)
21.9 µM: TGI (NCI-H23 lung)
20.4 µM: TGI (SF-268 CNS)
19.3 µM: TGI (786-0 renal)
3.84 µM: TGI (UACC-257 melanoma)
2.87 µM: TGI (COLO 205 colon) | TGI (SK-MEL-5 melanoma)
14.5 µM: TGI (HS 578T breast) | TGI (U251 CNS)
7.11 µM: TGI (HT29 colon)
17.5 µM: TGI (SNB-75 CNS)
inactive: GI50 (786-0 renal) 6.67 µM | GI50 (A498 renal) 12.5 µM | GI50 (A549 NSCLC) 3.59 µM | GI50 (ACHN renal) 11 µM | GI50 (CAKI-1 renal) 30.9 µM | GI50 (CCRF-CEM leukemia) 2.5 µM | GI50 (COLO 205 colon) 1.5 µM | GI50 (DU-145 prostate) 10.5 µM | GI50 (EKVX NSCLC) 7.75 µM | GI50 (HCC-2998 colon) 10.4 µM | GI50 (HCT-116 colon) 3.37 µM | GI50 (HCT-15 colon) 15.2 µM | GI50 (HL-60(TB) leukemia) 3.87 µM | GI50 (HOP-62 NSCLC) 8.63 µM | GI50 (HOP-92 NSCLC) 1.63 µM | GI50 (HS 578T breast) 0.677 µM | GI50 (HT29 colon) 2.42 µM | GI50 (IGROV1 ovarian) 12.8 µM | GI50 (K-562 leukemia) 1.98 µM | GI50 (KM12 colon) 3.35 µM | GI50 (M14 melanoma) 1.91 µM | GI50 (MALME-3M melanoma) 1.61 µM | GI50 (MCF7 breast) 3.83 µM | GI50 (MDA-MB-231 breast) 1.7 µM | GI50 (MDA-MB-435) 3.05 µM | GI50 (MOLT-4 leukemia) 2.34 µM | GI50 (NCI-H226 lung) 3.94 µM | GI50 (NCI-H23 lung) 6.9 µM | GI50 (NCI-H460 lung) 5.18 µM | GI50 (NCI-H522 lung) 2.45 µM | GI50 (OVCAR-3 ovarian) 11.6 µM | GI50 (OVCAR-4 ovarian) 4.24 µM | GI50 (OVCAR-5 ovarian) 5 µM | GI50 (OVCAR-8 ovarian) 3.08 µM | GI50 (PC-3 prostate) 6.97 µM | GI50 (RPMI-8226 leukemia) 2.34 µM | GI50 (RXF 393 renal) 0.578 µM | GI50 (SF-268 CNS) 5.35 µM | GI50 (SF-295 CNS) 2.33 µM | GI50 (SF-539 CNS) 3.3 µM | GI50 (SK-MEL-2 melanoma) 3.09 µM | GI50 (SK-MEL-28 melanoma) 2.41 µM | GI50 (SK-MEL-5 melanoma) 1.54 µM | GI50 (SN12C renal) 11.3 µM | GI50 (SNB-19 CNS) 8.6 µM | GI50 (SNB-75 CNS) 2.17 µM | GI50 (SR leukemia) 2.13 µM | GI50 (SW-620 colon) 3.18 µM | GI50 (T-47D breast) 5.4 µM | GI50 (TK-10 renal) 12 µM | GI50 (U251 CNS) 3.61 µM | GI50 (UACC-257 melanoma) 1.82 µM | GI50 (UACC-62 melanoma) 13.2 µM | GI50 (UO-31 renal) 12.2 µM
25.2 µM: TGI (A498 renal)
35.3 µM: TGI (HCT-15 colon)
11.9 µM: TGI (MDA-MB-435)
24.7 µM: TGI (OVCAR-3 ovarian)
3.73 µM: TGI (MALME-3M melanoma)
7.01 µM: TGI (SF-295 CNS)
> 100 µM: TGI (CAKI-1 renal)
6.96 µM: TGI (NCI-H522 lung)
24.8 µM: TGI (ACHN renal)
20.9 µM: TGI (HOP-62 NSCLC)
22.6 µM: TGI (SNB-19 CNS)
13.2 µM: TGI (KM12 colon) | TGI (OVCAR-8 ovarian)
17.6 µM: TGI (NCI-H460 lung)
8.44 µM: TGI (RXF 393 renal)
6.71 µM: TGI (HOP-92 NSCLC)
3.57 µM: TGI (M14 melanoma)
12.8 µM: TGI (HCT-116 colon)
24.3 µM: TGI (PC-3 prostate)
25.4 µM: TGI (TK-10 renal)
5.23 µM: TGI (K-562 leukemia)
6.63 µM: TGI (RPMI-8226 leukemia)
16.8 µM: TGI (CCRF-CEM leukemia) | TGI (NCI-H226 lung)
27.2 µM: TGI (UACC-62 melanoma) | TGI (UO-31 renal)
6.09 µM: TGI (MDA-MB-231 breast)
4.74 µM: TGI (SR leukemia)
14.9 µM: TGI (HL-60(TB) leukemia)
6.9 µM: TGI (MOLT-4 leukemia)
22.2 µM: TGI (DU-145 prostate) | TGI (HCC-2998 colon)
13.7 µM: TGI (A549 NSCLC)
18.9 µM: TGI (T-47D breast)
5.17 µM: TGI (SK-MEL-28 melanoma)
34.3 µM: TGI (IGROV1 ovarian)
20.7 µM: TGI (OVCAR-5 ovarian)
18.3 µM: TGI (OVCAR-4 ovarian)
25.5 µM: TGI (EKVX NSCLC)
7.52 µM: TGI (SK-MEL-2 melanoma)
